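Five concentrations, 48 hours, 96-well plates. GI50 marks 50% less growth. TGI: total growth inhibition.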

Common to all, as to assay: DTP human tumour cell line panel, 48 h
The subject of experiment [1] is A549 NSCLC.
The test system of experiment [2] is CAKI-1 renal.
For experiment [3], the system named is A498 renal.
Experiment [4] relates to COLO 205 colon.
Experiment [5] has as its system UACC-257 melanoma.
The test system of experiment [6] is NCI-H522 lung.
Experiment [7] relates to OVCAR-8 ovarian.
Experiment [8] concerns NCI-H460 lung.
Experiment [9] has as its system U251 CNS.
Experiment [10] deals with RXF 393 renal.

On to `Cc1cc2c3ccccc3n(C)c2c2c1C(=O)c1ccccc1C2=O`, for which the TGI was 58 µM in [1]; 54.8 µM in experiment [2]; greater than 100 µM in [3]; 56.1 µM in experiment [4]; 43.3 µM in experiment [5]; 49.2 µM in [6]. Moreover, the total growth inhibition concentration (TGI) in [7] worked out at 76.2 µM.

With `COc1cc2c(cc1OCCCCNC(=O)c1cc3ccccc3[nH]1)N=CC1CCCN1C2=O` (centres undefined), the GI50 in [1] was 28.3 µM; in experiment [8] it was 11.9 µM; in [9], 10.5 µM; in [3], 22200 nM; in experiment [4], 16 µM; in [10], 2.35 µM. Besides, the GI50 is 17.4 µM in experiment [5], 4.43 µM in experiment [6] and 16.7 µM in [7]. The TGI in experiment [1] is greater than 100 µM; in experiment [8], 65.1 µM; in experiment [9] it was greater than 100 µM; in [3], 44.4 µM; in [4] it was greater than 100 µM; in experiment [10], 6.28 µM. In addition, the TGI in experiment [5] was found to be 43.8 µM; in experiment [6], 79.9 µM; in [7], 78.9 µM.

As for `COC(=O)C(C(=O)C(=O)Nc1cccc(O)c1)c1nc2ccc(Cl)cc2[nH]c1=O` (centres undefined), the TGI in [1], in experiment [8], in [9], in experiment [2], in experiment [3] and in experiment [4] was greater than 100 µM throughout. The TGI in experiment [10], in experiment [5] and in [7] was greater than 100 µM throughout.

As to `O=C(Nc1cccc(Cl)c1)Nc1cccc(Cl)c1`, the GI50 was 7.05 µM in [9]; 2870 nM in experiment [3]; 24.1 µM in experiment [10]; greater than 100 µM in experiment [5]; 2.04 µM in experiment [6]; 15.3 µM in [7]. In addition, the TGI in [9] was greater than 100 µM; in [3] it was greater than 100 µM; in [10] it was greater than 92.8 µM; in experiment [5] it was greater than 100 µM; in [6], greater than 100 µM; in experiment [7], greater than 100 µM.

As for `Cc1ccc2nc3c(Cl)cc(=O)cc-3sc2c1`, the TGI in experiment [1] came out at 43 µM; in experiment [8], 83.5 µM; in [9], 45.5 µM; in experiment [2], 71.1 µM; in [4], 36.3 µM; in experiment [5] it was 46.6 µM. Moreover, the values for the concentration for total growth inhibition (TGI) in [6] and in experiment [7] were 39 µM and 43.4 µM, respectively.

Take `N=C(N)n1ncc(Cl)c(Cl)c1=O`: the TGI worked out at 33.6 µM in experiment [1]; 31.4 µM in [8]; 20 µM in experiment [9]; 3.31 µM in [2]; 35.1 µM in experiment [3]; 3.43 µM in experiment [4]. Also, the TGI in experiment [5] was 4.66 µM; in experiment [6] it was 3.43 µM; in [7] it was 4.55 µM.

Regarding `c1cncc(CNc2ccccc2-c2nnc(Nc3ccc4c(c3)OCO4)o2)c1`, the concentration for 50% growth inhibition (GI50) in experiment [1] was 0.0686 µM; in experiment [8], 0.0435 µM; in experiment [9] it was 0.0452 µM; in experiment [2], 0.0551 µM; in experiment [3], 19.9 nM; in experiment [4], 0.0411 µM. Moreover, the GI50 in experiment [5] is 0.432 µM; in experiment [6], 0.0247 µM; in experiment [7] it was 0.127 µM. Moreover, the concentration for total growth inhibition (TGI) in [1] was greater than 100 µM; in experiment [8], greater than 100 µM; in experiment [9], greater than 42.8 µM; in experiment [2] it was greater than 100 µM; in experiment [3], greater than 100 µM; in experiment [4], 0.551 µM. The TGI in [5] is 60.4 µM; in experiment [6] it was 0.0709 µM; in experiment [7] it was greater than 100 µM.

For the compound `CC(=O)Nc1ccc2nncnc2c1`, the concentration for total growth inhibition (TGI) in experiment [1], in experiment [8], in experiment [9], in experiment [2], in experiment [3] and in experiment [4] was greater than 100 µM throughout. For the same compound, the concentration for total growth inhibition (TGI) in experiment [5] and in [6] was greater than 100 µM throughout.

As to `C=C1CC[C@@H]2C(C)(C)[C@@H](O)CC[C@@]2(C)[C@@H]1COc1ccc2ccc(=O)oc2c1`, the GI50 in experiment [1] was 8.46 µM; in experiment [8], 14.9 µM; in experiment [9] it was 9.62 µM; in [2], 13.4 µM; in experiment [10], 7.41 µM; in experiment [5], 14.1 µM. The GI50 in experiment [6] was 13.1 µM. The TGI in experiment [1] came to 66.8 µM; in experiment [8], 32.4 µM; in experiment [9], 24.8 µM; in experiment [2], 55.6 µM; in [10], 21.9 µM; in experiment [5], 32.1 µM. Besides, the concentration for total growth inhibition (TGI) in [6] stood at 36.1 µM; in [7], 78.7 µM.

As for `O=C(c1cc2ccccc2[nH]1)C(O)(c1cc2ccccc2[nH]1)c1cc2ccccc2[nH]1`, the TGI in experiment [1], in [8], in experiment [9], in experiment [2], in experiment [4] and in experiment [10] was greater than 246 µM throughout. The TGI in [5], in experiment [6] and in experiment [7] was greater than 246 µM throughout.

As to `Cc1cc(C)nc(NS(=O)(=O)c2ccc(Nc3c4ccccc4nc4c(C(=O)NCCN(C)C)ccc(Cl)c34)cc2)n1`, the TGI in experiment [1] came to 4.19 µM; in [8], 2.7 µM; in [9], 10.4 µM; in experiment [4], 2.64 µM; in experiment [10], 6.31 µM; in experiment [6], 3.32 µM. Moreover, in experiment [7], the total growth inhibition concentration (TGI) is 2.69 µM.

With `C/C=C/C=N/N(c1nnc(-c2ccccc2)c(-c2ccccc2)n1)S(=O)(=O)c1ccc(C)cc1`, the concentration for total growth inhibition (TGI) in [1] came to 28.1 µM; in experiment [8] it was 28.3 µM; in experiment [9] it was 12.7 µM; in [2] it was 31.4 µM; in [3], 27.6 µM; in experiment [4] it was 35.7 µM. In addition, the TGI in experiment [5] is 20.9 µM; in [6], 19.4 µM; in experiment [7], 20.7 µM.

As usually defined, the TGI is the concentration giving total growth inhibition. Low readings indicate more potent growth arrest, high ones less potent growth arrest. What is called GI50 is the concentration at which growth is held to half of that of the control.

These data come from PubChem BioAssay (NCI).
